From patent US20120270914A1, “SPLIT-LUCIFERASE C-MYC SENSOR AND USES THEREOF” (THE BOARD OF TRUSTEES OF THE LELAND STANFORD JUNIOR …, priority 2011, published 2012)
pIC50: −log10 of the molar value.

Experiments:
c-Myc [1] = details: Hydbring et al. 2009; cited from earlier work
c-Myc [2] = assay: Drug inhibition assay: BLI of SKBR3 stable cells constitutively expressing the c-Myc sensor (SK ST), normalized to full-length FL cells (SK FST); assay type: cell-based, human
Description: To test the ability of the sensor to monitor c-Myc phosphorylation levels on drug treatment, the SKBR3 and 293T stable cells (SK ST and 293T ST) were established that constitutively express the sensor. SKBR3 and 293T stable cells were also constructed that constitutively express the full-length FL (SK FST and 293T FST) for the control of direct drug effect on FL activity.
Luciferase Activity Assay: BLI of luciferase activity in intact cells was performed as described previously (Hann (2006) Semin Cancer Biol 16(4):288-302). In brief, 24 h after transfection, culture medium was replaced with a PBS solution (pH 7.0) of 45 μg/mL D-Luc for FL imaging or of 10 μg/mL of Clz for RL imaging with the IVIS BLI system (Xenogen). Images were acquired at 2-min intervals until the peak signal was reached. The photon output of FL or RL imaging in transiently transfected cells was normalized to co-expressed RL or FL activity, respectively, measured by an in vitro luminometry assay as described previously (Chan et al. (2008) Cancer Res. 68:216-226), then normalized to the total protein in the cell lysates, measured by the BioRad DC protein assay as directed by the manufacturer. In stable cells, the photon output of FL imaging was normalized to the total protein in the cell lysates.
(§1) Drug Inhibition Assay: SKBR3 stable cells constitutively expressing the sensor system (SK ST) or the full-length FL (SK FST) were treated with PD98059 (Cell Signaling) for 2 h, U0126 (Cell Signaling) for 1 h, and purified AT (Sequoia Research Products) for 16 h at the indicated concentrations and imaged with D-Luc in the IVIS 50 BLI system (FIGS. 6A and 6B, and FIGS. 10A-12D). In addition, 293T stable cells constitutively expressing the sensor system (293T ST) or the full-length FL (293T FST) were treated with AT for 16 h at the indicated concentrations (FIGS. 6A and 6B, and FIGS. 13A-13D) and imaged with D-Luc in the IVIS 50 system. The photon output of FL imaging was normalized to the total protein content, and the FL activity of SK ST or 293T ST was normalized to that of SK FST or 293T FST, respectively. SKBR3 and 293T cells were treated as above and lysed for Western blot analysis of phospho c-Myc, c-Myc, and β-actin proteins. The correlation coefficient between the fold change of normalized FL activity and the fold change of normalized phospho c-Myc level (phospho c-Myc/β-actin) was determined based on the R^2 value.

c-Myc [3] = assay: Western blot analysis of endogenous phospho c-Myc in SKBR3 cells; assay type: cell-based, human
Description: (§2) FIGS. 26A and 26B illustrate the inhibition of endogenous c-Myc. FIG. 26A: Western blot analysis of SKBR3 cells after NTZ treatment was performed using phospho c-Myc, c-Myc protein, and β-actin antibodies. […] The fold-change of phospho c-Myc level was plotted against the log scale of NTZ concentration.
Western Blot Analysis: Total cell lysates were collected using 1× cell lysis buffer (Cell Signaling), as directed by the manufacturer. The protein concentration was determined using the BioRad DC protein assay. SDS/PAGE analysis of 50 μg of protein was transferred to an lmmobilon-P membrane (Millipore). Anti-phosphor-c-Myc (Thr58/Ser62) and anti-c-Myc antibody (Cell Signaling) were used to visualize the phospho c-Myc and c-Myc protein, respectively, as directed by the manufacturer. Anti-FLuc-HRP antibody was used to detect the FL fragments, as directed by the manufacturer (Sigma-Aldrich). β-actin protein was used as a loading control and detected by anti-β-actin antibody (Sigma-Aldrich). Immunoblots were developed using the Pierce ECL Kit, as directed by the manufacturer. Protein levels were determined by quantifying the band intensities on Western blot analysis using ImageJ's ROI manager.
as §1

[4] = test system: SK-ST subcutaneous tumor xenograft; assay: SK-ST subcutaneous tumor xenograft mouse model under NTZ treatment; assay type: in vivo; details: NTZ vs CMC treated groups, up to 27 days after implantation
Description: FIGS. 27A and 27B illustrate the efficacy of NTZ in a SK-ST subcutaneous tumor xenograft mouse model. FIG. 27A: SK-ST stable cells were subcutaneously implanted as indicated and treated with NTZ or CMC. Representative images of FL imaging at indicated days of treatment are shown. FIG. 27B: Photon output of SK-ST cells with NTZ or CMC treatment is plotted against days after implantation. * P<0.05. […] FIG. 28A: Representative photographs of removed tumors from CMC or NTZ treated mice 27 days after implantation. FIG. 28B: Plot of caliper measured tumor sizes of NTZ or CMC treated groups at different days after implantation. *P<0.05, **P<0.01. FIGS. 29A and 29B illustrate immunohistochemistry and western blot analysis of NTZ treated tumor samples. FIG. 29A: Representative images of H&E, Ki67 and caspase-3 IHC staining of tumor tissue samples from each group. FIG. 29B: Western blot analysis of tumor tissue samples using phospho c-Myc, c-Myc and α-tubulin antibodies.

c-Myc [5] = assay: Phospho c-Myc level in lymphoma cells; assay type: cell-based; details: read-out: IC50, inhibition of phospho c-Myc level
Description: as §2

c-Myc [6] = assay: Phospho c-Myc level in sarcoma cells; assay type: cell-based; details: read-out: IC50, inhibition of phospho c-Myc level
Description: as §2

| pIC50 (c-Myc [5]) | pIC50 (c-Myc [3]; read-out: IC50, inhibition of phospho c-Myc level) | pIC50 (c-Myc [6]) | SMILES | c-Myc phosphorylation level in vitro (c-Myc [1]) | reduction in complemented FL activity compared between drugs (c-Myc [2]; SK ST cells normalized to SK FST cells) | complemented FL activity (c-Myc [2]; SK ST cells, after normalization to effect on FL activity of SK FST cells, PD98059 2 h, U0126 1 h, AT 16 h) | endogenous c-Myc phosphorylation level (c-Myc [3]; Western blot) | tumor growth (caliper measured tumor sizes) [4] | luciferase activity when cells are exposed to nitazoxanide (c-Myc [2]; in vitro validation of the assay system) |
| --- | --- | --- | --- | --- | --- | --- | --- | --- | --- |
| – | – | – | N#CC(=C(/N)Sc1ccccc1N)/C(C#N)=C(\N)Sc1ccccc1N [U0126] | decrease | greater reduction than PD98059 | dose-dependent reduction | decreased | – | – |
| 6.36 | 6.91 | 7.92 | CC(=O)Oc1ccccc1C(=O)Nc1ncc([N+](=O)[O-])s1 [NTZ, nitazoxanide] | – | – | – | – | inhibition of tumor growth | decrease in luciferase activity |
